Assay results: patent EP3753560A1, “COMPOUNDS FOR THE TREATMENT OF NEUROMUSCULAR DISORDERS” (NMD Pharma A/S, priority 2019, dated 2020)

Tests used:
[1] = system: isolated rat soleus muscles; experiment: Measurement of force in an in vitro model: recovery of nerve-stimulated contractile force of isolated soleus nerve-muscle preparations after tubocurarine; conditions: for Point increase (%): percentage of the initial force restored, 50 µM test compound, after 40 mins of compound exposure, in continued presence of 115 nM tubocurarine (90 mins pre-incubation), 30°C
Source text: • The terms "C1-3 alkyl" and "C1-5 alkyl" refers to a branched or unbranched alkyl group having from […] carbon atoms respectively, including but not limited to methyl, ethyl, prop-1-yl, prop-2-yl, 2-methyl-prop-1-yl, 2-methyl-prop-2-yl, 2,2-dimethyl-prop-1-yl, but-1-yl, but-2-yl, 3-methyl-but-1-yl, 3-methyl-but-2-yl, pent-1-yl, pent-2-yl and pent-3-yl. • The term "C3-5 cycloalkyl" and "C3-6 cycloalkyl" refers to a group having three to five or three to six carbon atoms respectively including a monocyclic or bicyclic carbocycle, including but not limited to cyclopropyl, cyclobutyl, cyclopentyl and cyclohexyl. • The term "C2-5 alkenyl" refers to a branched or unbranched alkenyl group having from two to five carbon atoms, two of which are connected by a double bond, including but not limited to ethenyl, propenyl, isopropenyl, butenyl, isobutenyl, pentenyl and isopentenyl. • The term "C2-5 alkynyl" refers to a branched or unbranched alkynyl group having from […] carbon atoms, two of which are connected by a triple bond, including but not limited to ethynyl, prop-1-ynyl, prop-2-ynyl, but-1-ynyl, but-2-ynyl, but-3-ynyl, buta-1,3-diynyl, pent-1-ynyl, pent-2-ynyl, pent-3-ynyl, pent-4-ynyl, penta-2,4-diynyl and penta-1,3-diynyl. • The term "5 membered aromatic heterocycle" refers to an aromatic group having five carbon atoms wherein between 1 and 3 carbon atoms in the ring have been replaced with a heteroatom selected from the group comprising nitrogen, sulphur and oxygen. Binding to the heterocycle may be at the position of the heteroatom or via a carbon atom of the heterocycle. […] The term "plasma half-life" is the time that it takes the compound to lose one-half of its pharmacologic activity in the blood plasma. • The term "treatment" refers to the combating of a disease or disorder. "Treatment" or "treating," as used herein, includes any desirable effect on the symptoms or pathology of a disease or condition as described herein, and may include even minimal changes or improvements in one or more measurable markers of the disease or condition being treated. […] In some embodiments, the term "treatment" encompasses amelioration and prevention. • The term "amelioration" refers to moderation in the severity of the symptoms of a disease or condition. Improvement in a patient's condition, or the activity of making an effort to correct, or at least make more acceptable, conditions that are difficult to endure related to patient's conditions is considered "ameliorative" treatment. • The term "prevent" or "preventing" refers to precluding, averting, obviating, forestalling, stopping, or hindering something from happening, especially by advance action. • The term "reversal" or "reversing" refers to the ability of a compound to restore nerve-stimulated force in skeletal muscle exposed either ex vivo or in vivo to a non-depolarizing neuromuscular blocking agent or another pharmaceutical that is able to depress neuromuscular transmission • The term "non-depolarizing blockers" refers to pharmaceutical agents that antagonize the activation of acetylcholine receptors at the post-synaptic muscle fibre membrane by blocking the acetylcholine binding site on the receptor.
The current disclosure relates to compounds that inhibit CIC-1 ion channels and increase muscle excitability and thereby improve muscle function in clinical conditions where muscle activation is failing. Such conditions result in loss of contractile function of skeletal muscle, weakness and excessive fatigue. In this series of experiments the compounds were tested for their ability to restore contractile function of isolated rat muscle when the neuromuscular transmission had been compromised akin to neuromuscular disorders.
Experimentally, soleus muscles from 4-5 wk old rats were isolated with the motor nerve remaining attached. […]

human CIC-1 channels = biological target: T1, human CIC-1 channels (Homo sapiens, UniProt P35523); experiment: Automated whole cell patch-clamp (Qpatch 16) on CHO cells expressing human CIC-1; format: cell-based; conditions: difference in half activation voltage between cell patches treated intracellularly with compound and control (vehicle) patches; positive shift reflects CIC-1 inhibition
T1 construct: host or cells: CHO (Chinese hamster ovary) cells, constitutive expression
T1 sequence (P35523 whole entry): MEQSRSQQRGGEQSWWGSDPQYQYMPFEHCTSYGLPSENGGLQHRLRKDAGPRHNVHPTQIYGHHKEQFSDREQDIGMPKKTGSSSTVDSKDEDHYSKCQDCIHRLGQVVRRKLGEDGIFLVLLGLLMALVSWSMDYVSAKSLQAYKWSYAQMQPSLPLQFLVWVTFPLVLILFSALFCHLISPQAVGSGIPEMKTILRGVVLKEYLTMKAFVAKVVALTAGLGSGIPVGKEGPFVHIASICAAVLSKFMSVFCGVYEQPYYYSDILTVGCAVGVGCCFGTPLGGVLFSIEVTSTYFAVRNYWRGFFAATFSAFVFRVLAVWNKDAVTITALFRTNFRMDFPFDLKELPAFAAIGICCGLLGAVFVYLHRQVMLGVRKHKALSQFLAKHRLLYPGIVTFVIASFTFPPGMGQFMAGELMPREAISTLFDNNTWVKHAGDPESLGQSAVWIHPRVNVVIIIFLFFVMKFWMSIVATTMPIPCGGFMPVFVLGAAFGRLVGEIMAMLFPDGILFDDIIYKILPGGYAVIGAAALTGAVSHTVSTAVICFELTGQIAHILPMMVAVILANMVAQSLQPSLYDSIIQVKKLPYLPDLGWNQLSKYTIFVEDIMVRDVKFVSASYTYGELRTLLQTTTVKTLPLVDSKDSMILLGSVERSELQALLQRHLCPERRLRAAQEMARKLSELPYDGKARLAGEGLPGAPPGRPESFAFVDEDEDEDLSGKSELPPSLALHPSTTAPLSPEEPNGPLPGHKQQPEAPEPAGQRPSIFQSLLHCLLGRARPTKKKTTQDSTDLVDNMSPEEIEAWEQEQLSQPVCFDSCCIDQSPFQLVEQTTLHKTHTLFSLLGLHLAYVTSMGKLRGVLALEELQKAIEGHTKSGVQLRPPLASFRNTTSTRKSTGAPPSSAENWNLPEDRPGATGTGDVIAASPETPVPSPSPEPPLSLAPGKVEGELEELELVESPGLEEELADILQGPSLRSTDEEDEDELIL
Protocol: Experiments were performed using an automated patch clamp system that allowed high throughput testing of whole cell patches together with both intracellular and extracellular addition of compound.
Automated whole cell patch clamp experiments were performed with the Qpatch 16 system (Sophion Bioscience, Ballerup, Denmark) at room temperature. Data acquisition and analysis were performed in the Qassay software (ver. 5.6, Odense).
To evoke CIC-1 currents in whole cell patches, the membrane potential was initially stepped from a holding potential of -30 mV to +60 mV for 100 ms and then to various test voltages (sweeps) ranging from +120 mV to -140 mV in steps of 20 mV for 300 ms. To obtain tail currents, the membrane potential was stepped to -100 mV after each test voltage for 300 ms and then relaxed to -30 mV for 2 sec between sweeps (Figure 2). I/V relationships for whole cell instant and steady state current amplitudes were obtained by plotting average current densities at the beginning and at the end of the 300 ms step against the membrane potential (Figure 3).
In order to determine the relative overall open probability (P0), the instantaneous tail currents were normalized to the maximal tail current obtained following the most positive voltage step and plotted against the test voltage. […]
To evaluate the compound effect on CIC-1, when applied directly to the intracellular side of the cell membrane, the half activation voltage, V1/2, was determined from whole cell patches with compound added to the intracellular solution and then compared to V1/2 determined from control cell patches with only vehicle added to the intracellular solution. Additionally, the effect of extracellular added compound was evaluated by determine V1/2 and steady state current amplitudes before and after exchanging the extracellular solution to contain compound.
The difference in half activation voltage of CIC-1 channels, ΔV1/2, was determined as the difference between the cell patches treated intracellularly with compound and control cells patches and is reported in Table 4 below. […]

Row | ΔV1/2 (mV) (human CIC-1 channels) | SMILES | Point increase (%) [1] [%] | average force (AUC) relative to initial force ([1]; Figure 1: 50 µM compound added after 90 min incubation in tubocurarine, 3 muscles)
1 |  | O=C(O)[C@@H]1CCc2cc(Br)cc(-c3ccon3)c2O1 (single isomer, unassigned) [Compound A-13] | 24 | 
2 |  | O=C(O)Cn1cc(-c2ccon2)c2cc(Cl)ccc21 [Compound A-4, 2-[5-chloro-3-(1,2-oxazol-3-yl)-1H-indol-1-yl]acetic acid] | 12 | 
3 |  | O=C(O)Cn1cc(-c2ccon2)c2cc(Br)ccc21 [Compound A-12, 2-[5-bromo-3-(1,2-oxazol-3-yl)-1H-indol-1-yl]acetic acid] | 13 | 
4 | 8.4 | O=C(O)[C@@H]1CCCN1c1ccc(Br)cc1F [Compound A-14, (2S)-1-(4-bromo-2-fluorophenyl)pyrrolidine-2-carboxylic acid] | 26 | 
5 |  | O=C(O)C1CCc2cc(Br)cc(-c3ccon3)c2O1 (stereo not drawn) [Compound A-15, 6-bromo-8-(1,2-oxazol-3-yl)-3,4-dihydro-2H-1-benzopyran-2-carboxylic acid] |  | recovered
6 | 27.9 | O=C(O)Cn1ccc2cc(Br)ccc21 [Compound A-24, 2-(5-bromo-1H-indol-1-yl)acetic acid] | 10 | 
7 | 5.5 | CC(C(=O)O)n1ccc2cc(Br)ccc21 (stereo not drawn) [Compound A-25, 2-(5-bromo-1H-indol-1-yl)propanoic acid] |  | 
